In article PMC10116469 (Nature Communications, 2023):

Key:
[1] = target: MPXV VP39 2′-O-RNA methyltransferase (Monkeypox virus, UniProt A0A7H0DN74); assay: biochemical
[2] = system: SARS-CoV-2 nsp14 N7-MTase; settings: cited from earlier work
[3] = IC50, individual fit of data set 1
[4] = IC50, individual fit of data set 2
[5] = IC50 average (averaged IC50 values from independent measurement)

MPXV VP39 2′-O-RNA methyltransferase, sequence (A0A7H0DN74 whole entry, looked up): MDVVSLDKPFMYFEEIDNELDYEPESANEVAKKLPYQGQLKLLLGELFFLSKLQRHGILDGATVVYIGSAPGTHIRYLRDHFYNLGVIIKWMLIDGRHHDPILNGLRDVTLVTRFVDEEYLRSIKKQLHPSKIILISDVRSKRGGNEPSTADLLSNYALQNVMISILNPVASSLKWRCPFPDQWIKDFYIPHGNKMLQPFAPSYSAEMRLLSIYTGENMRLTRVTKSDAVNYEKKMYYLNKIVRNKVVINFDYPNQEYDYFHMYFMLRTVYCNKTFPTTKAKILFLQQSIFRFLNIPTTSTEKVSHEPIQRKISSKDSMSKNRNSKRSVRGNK

Nc1ncnc2c1c(C#Cc1ccccc1)cn2[C@@H]1O[C@H](CSCC[C@H](N)C(=O)O)[C@@H](O)[C@H]1O [TO427]
HillSlope, individual fit of data set 1 [1]: -1.507 | HillSlope, individual fit of data set 2 [1]: -1.605 | LogIC50, fit of all data points [1]: -0.9412 | LogIC50, individual fit of data set 1 [1]: -0.9395 | LogIC50, individual fit of data set 2 [1]: -0.9422 | IC50 ([1]; IC50 (mean ± SEM)): 115 ± 0.4 nM | IC50 ([1]; IC50, fit of all data points): 114 nM | IC50 [1, 3]: 115 nM | IC50 [1, 4]: 114 nM | IC50 [1, 5]: 115 nM

Nc1ncnc2c1c(C#Cc1cccc3ccccc13)cn2[C@@H]1O[C@H](CSCC[C@H](N)C(=O)O)[C@@H](O)[C@H]1O [TO494]
HillSlope, individual fit of data set 1 [1]: -1.676 | HillSlope, individual fit of data set 2 [1]: ~ -5.860 | LogIC50, fit of all data points [1]: -0.9386 | LogIC50, individual fit of data set 1 [1]: -1.017 | LogIC50, individual fit of data set 2 [1]: ~ -0.7109 | IC50 ([1]; IC50, fit of all data points): 115 nM | IC50 [1, 3]: 96.1 nM | IC50 [1, 5]: 145 nM

Nc1ncnc2c1c(C#Cc1nc3ccccc3[nH]1)cn2[C@@H]1O[C@H](CSCC[C@H](N)C(=O)O)[C@@H](O)[C@H]1O [TO500]
HillSlope, individual fit of data set 1 [1]: -1.441 | HillSlope, individual fit of data set 2 [1]: -1.353 | LogIC50, fit of all data points [1]: -0.7728 | LogIC50, individual fit of data set 1 [1]: -0.7814 | LogIC50, individual fit of data set 2 [1]: -0.7635 | IC50 ([1]; IC50, fit of all data points): 169 nM | IC50 [1, 3]: 165 nM | IC50 [1, 4]: 172 nM | IC50 [1, 5]: 169 nM

Nc1ncnc2c1c(C#Cc1ccc3ccccc3c1)cn2[C@@H]1O[C@H](CSCC[C@H](N)C(=O)O)[C@@H](O)[C@H]1O [TO504]
HillSlope, individual fit of data set 1 [1]: -1.768 | HillSlope, individual fit of data set 2 [1]: -1.833 | LogIC50, fit of all data points [1]: -1.107 | LogIC50, individual fit of data set 1 [1]: -1.131 | LogIC50, individual fit of data set 2 [1]: -1.08 | IC50 ([1]; IC50, fit of all data points): 78.1 nM | IC50 [1, 3]: 73.9 nM | IC50 [1, 4]: 83.2 nM | IC50 [1, 5]: 79 nM

Nc1ncnc2c1c(C#Cc1cnc3ccccc3c1)cn2[C@@H]1O[C@H](CSCC[C@H](N)C(=O)O)[C@@H](O)[C@H]1O [TO507]
inhibition of SARS-CoV-2 nsp14 [2]: nanomolar inhibitors | HillSlope, individual fit of data set 1 [1]: -1.446 | HillSlope, individual fit of data set 2 [1]: -1.972 | LogIC50, fit of all data points [1]: -0.9412 | LogIC50, individual fit of data set 1 [1]: -0.9877 | LogIC50, individual fit of data set 2 [1]: -0.8836 | IC50 ([1]; IC50, fit of all data points): 114 nM | IC50 [1, 3]: 103 nM | IC50 [1, 4]: 131 nM | IC50 [1, 5]: 117 nM

CCc1cn([C@@H]2O[C@H](CSCC[C@H](N)C(=O)O)[C@@H](O)[C@H]2O)c2ncnc(N)c12 [TO1111]
HillSlope, individual fit of data set 1 [1]: -1.277 | HillSlope, individual fit of data set 2 [1]: -1.517 | LogIC50, fit of all data points [1]: -1.058 | LogIC50, individual fit of data set 1 [1]: -1.122 | LogIC50, individual fit of data set 2 [1]: -0.9871 | IC50 ([1]; IC50, fit of all data points): 87.5 nM | IC50 [1, 3]: 75.5 nM | IC50 [1, 4]: 103 nM | IC50 [1, 5]: 89 nM

C=Cc1cn([C@@H]2O[C@H](CSCC[C@H](N)C(=O)O)[C@@H](O)[C@H]2O)c2ncnc(N)c12 [TO1116]
HillSlope, individual fit of data set 1 [1]: -0.9545 | HillSlope, individual fit of data set 2 [1]: -1.033 | LogIC50, fit of all data points [1]: -0.836 | LogIC50, individual fit of data set 1 [1]: -0.8617 | LogIC50, individual fit of data set 2 [1]: -0.8127 | IC50 ([1]; IC50, fit of all data points): 146 nM | IC50 [1, 3]: 138 nM | IC50 [1, 4]: 154 nM | IC50 [1, 5]: 146 nM

Nc1ncnc2c1c(I)cn2[C@@H]1O[C@H](CSCC[C@H](N)C(=O)O)[C@@H](O)[C@H]1O [TO1119]
HillSlope, individual fit of data set 1 [1]: -1.304 | HillSlope, individual fit of data set 2 [1]: -1.575 | LogIC50, fit of all data points [1]: -0.8937 | LogIC50, individual fit of data set 1 [1]: -0.9194 | LogIC50, individual fit of data set 2 [1]: -0.8669 | IC50 ([1]; IC50): 128 nM | IC50 ([1]; IC50, fit of all data points): 128 nM | IC50 [1, 3]: 120 nM | IC50 [1, 4]: 136 nM

Nc1ncnc2c1ncn2[C@@H]1O[C@H](C[C@@H](N)CC[C@H](N)C(=O)O)[C@@H](O)[C@H]1O [sinefungin, reference compound]
HillSlope, individual fit of data set 1 [1]: -0.961 | HillSlope, individual fit of data set 2 [1]: -0.8657 | LogIC50, fit of all data points [1]: 0.3693 | LogIC50, individual fit of data set 1 [1]: 0.3792 | LogIC50, individual fit of data set 2 [1]: 0.3552 | IC50 ([1]; IC50): 2300 nM | IC50 ([1]; IC50, fit of all data points): 2340 nM | IC50 [1, 3]: 2390 nM | IC50 [1, 4]: 2270 nM | IC50 [1, 5]: 2330 nM
